One series has as its system Plasmodium falciparum. As to the kind of experiment: Antimalarial activity against chloroquine sensitive-Plasmodium falciparum 3D7 assessed as growth inhibition preincubated for 24 hrs followed by [3H]-hypoxanthine incorporation measured after 24 hrs by scintillation counting. It is filed as functional, organism-based.
A further series deals with HepG2. The series can be described thus: Cytotoxicity against human HepG2 cells assessed as cell growth inhibition. The series is classed as cell-based.
Series [1] is described as follows: Lipophilicity, log D of the compound by chromatographic method. It is filed as physicochemical.

Each structure is given as a SMILES string. A value given as a limit tells only on which side of the number the result lay.

As for `CC(C)c1sc(N2CCN(C)CC2)nc1C(=O)Nc1ccccc1CO`, in the series with Plasmodium falciparum, the 50% inhibitory concentration (IC50) was > 5000 nM.
Take `CC(C)c1sc(N2CCN(C)CC2)nc1C(=O)Nc1c(F)cccc1F`: the IC50 in the series with Plasmodium falciparum was > 5000 nM.
Regarding `CC(C)c1sc(N2CCN(C)CC2)nc1C(=O)Nc1ccccc1OC(F)(F)F`, the concentration for half-maximal inhibition (IC50) was 34 nM in the series on Plasmodium falciparum and > 100000 nM in the series with HepG2.
For `CC(C)c1sc(N2CCN(C)CC2)nc1C(=O)Nc1ccccc1S(N)(=O)=O`, the IC50 in the series with Plasmodium falciparum is > 5000 nM.
`CC(C)c1sc(N2CCN(C)CC2)nc1C(=O)Nc1cccnc1Cl`: the IC50 with Plasmodium falciparum was 80 nM; in the series on HepG2, > 100000 nM. Moreover, the chromatographic logD in series [1] was 7.8.
In the case of `CC(C)c1sc(N2CCN(C)CC2)nc1C(=O)Nc1cc(F)cc(F)c1`, in the series on Plasmodium falciparum, the IC50 was > 5000 nM.
On to `CC(C)c1sc(N2CCN(C)CC2)nc1C(=O)Nc1ccc(F)cc1`, for which the IC50 with Plasmodium falciparum is > 5000 nM.
Turning to `CC(C)c1sc(N2CCN(C)CC2)nc1C(=O)Nc1ccc(F)cc1Cl`, the IC50 in the series with Plasmodium falciparum is 58 nM; in the series with HepG2 it was > 100000 nM.
Take `CC(C)c1sc(N2CCN(C)CC2)nc1C(=O)Nc1ncccc1Cl`: the IC50 in the series on Plasmodium falciparum was > 5000 nM.
As to `CC(C)c1sc(N2CCN(C)CC2)nc1C(=O)Nc1cnccc1Cl`, the concentration for half-maximal inhibition (IC50) with Plasmodium falciparum worked out at 1700 nM.
For the compound `CC(C)c1sc(N2CCN(C)CC2)nc1C(=O)Nc1ccccc1C(F)(F)F`, the concentration for half-maximal inhibition (IC50) in the series on Plasmodium falciparum is 31 nM; with HepG2 it was 50000 nM.
Regarding `CC(C)c1sc(N2CCN(C)CC2)nc1C(=O)Nc1ccc(C(F)(F)F)cc1Cl`, in the series on Plasmodium falciparum, the IC50 was > 5000 nM.
With `Cc1ccc(NC(=O)c2nc(N3CCN(C)CC3)sc2C(C)C)c(Cl)c1`, the half-maximal inhibitory concentration (IC50) with Plasmodium falciparum was 3270 nM.
Take `CC(C)c1sc(N2CCN(C)CC2)nc1C(=O)Nc1c(Cl)cc(C(F)(F)F)cc1Cl`: the IC50 in the series with Plasmodium falciparum is > 5000 nM.
As for `CC(C)c1sc(N2CCN(C)CC2)nc1C(=O)Nc1ccccc1C#N`, the results for the concentration for half-maximal inhibition (IC50) with Plasmodium falciparum and with HepG2 were 98 nM and 32000 nM, respectively.
With `CC(C)c1sc(N2CCN(C)CC2)nc1C(=O)Nc1cccnc1`, in the series with Plasmodium falciparum, the half-maximal inhibitory concentration (IC50) was > 5000 nM.
Take `CC(C)c1sc(N2CCN(C)CC2)nc1C(=O)Nc1ccc(F)cc1F`: the IC50 with Plasmodium falciparum was 1190 nM.
For the compound `CC(C)c1sc(N2CCN(C)CC2)nc1C(=O)Nc1ccc(F)cc1C(F)(F)F`, the results for the IC50 with Plasmodium falciparum and with HepG2 were 24 nM and 78000 nM, respectively. Moreover, the logD in series [1] is given as 9.06.
With `COc1ccccc1NC(=O)c1nc(N2CCN(C)CC2)sc1C(C)C`, in the series with Plasmodium falciparum, the half-inhibitory concentration (IC50) is 350 nM.
Same read-out and setting: then `CC(C)c1sc(N2CCN(C)CC2)nc1C(=O)Nc1cccc(Cl)n1`, with 350 nM.
With `CC(C)c1sc(N2CCOCC2)nc1C(=O)Nc1ccc(F)cc1C(F)(F)F`, the half-maximal inhibitory concentration (IC50) in the series with Plasmodium falciparum amounted to 102 nM.
As to `CC(C)c1sc(N(C)CCO)nc1C(=O)Nc1ccc(F)cc1C(F)(F)F`, in the series on Plasmodium falciparum, the half-maximal inhibitory concentration (IC50) turned out to be 3260 nM.
Take `COCCN(C)c1nc(C(=O)Nc2ccc(F)cc2C(F)(F)F)c(C(C)C)s1`: the IC50 in the series with Plasmodium falciparum was 590 nM.
In the case of `CC(C)c1sc(N2CCN(C)CC2)nc1C(=O)Nc1ccccc1F`, the IC50 in the series on Plasmodium falciparum is 260 nM.
As for `CC(C)c1sc(N(C)CCN(C)C)nc1C(=O)Nc1ccc(F)cc1C(F)(F)F`, the concentration for half-maximal inhibition (IC50) in the series with Plasmodium falciparum is 3150 nM.
In the case of `CC(C)c1sc(N2CCN(C)CC2)nc1C(=O)Nc1c(Cl)cc(F)cc1Cl`, the concentration for half-maximal inhibition (IC50) in the series with Plasmodium falciparum was > 5000 nM.
In the case of `CC(C)c1sc(N2CCN(C)CC2)nc1C(=O)Nc1ccccc1C(N)=O`, the IC50 in the series on Plasmodium falciparum was > 5000 nM.
As for `CC(C)c1sc(N2CCN(C)CC2)nc1C(=O)Nc1ccccc1Cl`, the IC50 in the series with Plasmodium falciparum was 58 nM; in the series with HepG2 it was > 100000 nM.
As to `Cc1cc(F)ccc1NC(=O)c1nc(N2CCN(C)CC2)sc1C(C)C`, the concentration for half-maximal inhibition (IC50) with Plasmodium falciparum turned out to be 720 nM.
